According to PubChem BioAssay (NCI):
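Five concentrations, 48 hours, 96-well plates. GI50 = concentration required for 50% inhibition of growth. TGI is the concentration that stops growth completely.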

Legend:
Assay in all cases: NCI-60 cell line screen, 48 h
OVCAR-5 ovarian = system: OVCAR-5 ovarian
HCT-116 colon = system: HCT-116 colon
RXF 393 renal = system: RXF 393 renal
SNB-75 CNS = system: SNB-75 CNS
SK-MEL-5 melanoma = system: SK-MEL-5 melanoma
SN12C renal = system: SN12C renal
KM12 colon = system: KM12 colon
UACC-257 melanoma = system: UACC-257 melanoma
PC-3 prostate = system: PC-3 prostate
MALME-3M melanoma = system: MALME-3M melanoma
CCRF-CEM leukemia = system: CCRF-CEM leukemia
DU-145 prostate = system: DU-145 prostate
BT-549 breast = system: BT-549 breast
A549 NSCLC = system: A549 NSCLC
CAKI-1 renal = system: CAKI-1 renal
TK-10 renal = system: TK-10 renal
ACHN renal = system: ACHN renal
SF-539 CNS = system: SF-539 CNS
NCI-H23 lung = system: NCI-H23 lung
UACC-62 melanoma = system: UACC-62 melanoma
MDA-MB-435 = system: MDA-MB-435
HS 578T breast = system: HS 578T breast
HL-60(TB) leukemia = system: HL-60(TB) leukemia
786-0 renal = system: 786-0 renal
OVCAR-4 ovarian = system: OVCAR-4 ovarian
EKVX NSCLC = system: EKVX NSCLC
SF-268 CNS = system: SF-268 CNS
COLO 205 colon = system: COLO 205 colon
SW-620 colon = system: SW-620 colon
OVCAR-8 ovarian = system: OVCAR-8 ovarian
UO-31 renal = system: UO-31 renal
SF-295 CNS = system: SF-295 CNS
U251 CNS = system: U251 CNS
SNB-19 CNS = system: SNB-19 CNS
LOX IMVI melanoma = system: LOX IMVI melanoma
NCI-H522 lung = system: NCI-H522 lung
IGROV1 ovarian = system: IGROV1 ovarian
MCF7 breast = system: MCF7 breast
HOP-92 NSCLC = system: HOP-92 NSCLC
SR leukemia = system: SR leukemia
MDA-MB-231 breast = system: MDA-MB-231 breast
HOP-62 NSCLC = system: HOP-62 NSCLC
A498 renal = system: A498 renal
NCI-H460 lung = system: NCI-H460 lung
SK-MEL-28 melanoma = system: SK-MEL-28 melanoma
NCI-H226 lung = system: NCI-H226 lung
OVCAR-3 ovarian = system: OVCAR-3 ovarian
NCI/ADR-RES ovarian = system: NCI/ADR-RES ovarian
M14 melanoma = system: M14 melanoma
HCT-15 colon = system: HCT-15 colon
HT29 colon = system: HT29 colon
SK-OV-3 ovarian = system: SK-OV-3 ovarian
HCC-2998 colon = system: HCC-2998 colon
RPMI-8226 leukemia = system: RPMI-8226 leukemia
MOLT-4 leukemia = system: MOLT-4 leukemia
T-47D breast = system: T-47D breast

Clc1nc(Cl)c2ncn(CC3(Cn4cnc5c(Cl)nc(Cl)nc54)COC3)c2n1
GI50 (OVCAR-5 ovarian): 0.634 µM
TGI (OVCAR-5 ovarian): 1.2 µM
GI50 (HCT-116 colon): 0.182 µM
TGI (HCT-116 colon): 0.35 µM
GI50 (RXF 393 renal): 0.196 µM
TGI (RXF 393 renal): 0.405 µM
GI50 (SNB-75 CNS): 0.201 µM
TGI (SNB-75 CNS): 0.395 µM
GI50 (SK-MEL-5 melanoma): 0.259 µM
TGI (SK-MEL-5 melanoma): 0.855 µM
GI50 (SN12C renal): 0.26 µM
TGI (SN12C renal): 0.776 µM
GI50 (KM12 colon): 0.362 µM
TGI (KM12 colon): 1.01 µM
GI50 (UACC-257 melanoma): 0.197 µM
TGI (UACC-257 melanoma): 0.427 µM
GI50 (PC-3 prostate): 0.188 µM
TGI (PC-3 prostate): 0.348 µM
GI50 (MALME-3M melanoma): 0.187 µM
TGI (MALME-3M melanoma): 0.433 µM
GI50 (CCRF-CEM leukemia): 0.221 µM
TGI (CCRF-CEM leukemia): 0.471 µM
GI50 (DU-145 prostate): 0.183 µM
TGI (DU-145 prostate): 0.335 µM
GI50 (BT-549 breast): 0.501 µM
TGI (BT-549 breast): 1.69 µM
GI50 (A549 NSCLC): 0.273 µM
TGI (A549 NSCLC): 1.19 µM
GI50 (CAKI-1 renal): 0.195 µM
TGI (CAKI-1 renal): 0.496 µM
GI50 (TK-10 renal): 0.601 µM
TGI (TK-10 renal): 1.2 µM
GI50 (ACHN renal): 0.57 µM
TGI (ACHN renal): 1.12 µM
GI50 (SF-539 CNS): 1.24 µM
TGI (SF-539 CNS): 2.55 µM
GI50 (NCI-H23 lung): 0.194 µM
TGI (NCI-H23 lung): 0.392 µM
GI50 (UACC-62 melanoma): 0.283 µM
TGI (UACC-62 melanoma): 0.903 µM
GI50 (MDA-MB-435): 0.234 µM
TGI (MDA-MB-435): 0.613 µM
GI50 (HS 578T breast): 0.316 µM
TGI (HS 578T breast): 0.868 µM
GI50 (HL-60(TB) leukemia): 0.354 µM
TGI (HL-60(TB) leukemia): 2.78 µM
GI50 (786-0 renal): 0.762 µM
TGI (786-0 renal): 2.37 µM
GI50 (OVCAR-4 ovarian): 0.276 µM
TGI (OVCAR-4 ovarian): 0.763 µM
GI50 (EKVX NSCLC): 0.821 µM
TGI (EKVX NSCLC): 2.43 µM
GI50 (SF-268 CNS): 0.196 µM
TGI (SF-268 CNS): 0.372 µM
GI50 (COLO 205 colon): 0.184 µM
TGI (COLO 205 colon): 0.356 µM
GI50 (SW-620 colon): 0.257 µM
TGI (SW-620 colon): 0.651 µM
GI50 (OVCAR-8 ovarian): 0.256 µM
TGI (OVCAR-8 ovarian): 0.532 µM
GI50 (UO-31 renal): 0.623 µM
TGI (UO-31 renal): 1.35 µM
GI50 (SF-295 CNS): 1.56 µM
TGI (SF-295 CNS): 3.1 µM
GI50 (U251 CNS): 0.181 µM
TGI (U251 CNS): 0.331 µM
GI50 (SNB-19 CNS): 0.332 µM
TGI (SNB-19 CNS): 0.803 µM
GI50 (LOX IMVI melanoma): 0.18 µM
TGI (LOX IMVI melanoma): 0.349 µM
GI50 (NCI-H522 lung): 0.966 µM
TGI (NCI-H522 lung): 3.07 µM
GI50 (IGROV1 ovarian): 0.209 µM
TGI (IGROV1 ovarian): 0.405 µM
GI50 (MCF7 breast): 0.188 µM
TGI (MCF7 breast): 0.428 µM
GI50 (HOP-92 NSCLC): 0.33 µM
TGI (HOP-92 NSCLC): 0.876 µM
GI50 (SR leukemia): 0.407 µM
TGI (SR leukemia): > 100 µM
GI50 (MDA-MB-231 breast): 0.19 µM
TGI (MDA-MB-231 breast): 0.371 µM
GI50 (HOP-62 NSCLC): 0.221 µM
TGI (HOP-62 NSCLC): 0.426 µM
GI50 (A498 renal): 1.78 µM
TGI (A498 renal): 3.46 µM
GI50 (NCI-H460 lung): 0.222 µM
TGI (NCI-H460 lung): 0.447 µM
GI50 (SK-MEL-28 melanoma): 0.212 µM
TGI (SK-MEL-28 melanoma): 0.396 µM
GI50 (NCI-H226 lung): 1.77 µM
TGI (NCI-H226 lung): 3.68 µM
GI50 (OVCAR-3 ovarian): 0.202 µM
TGI (OVCAR-3 ovarian): 0.36 µM
GI50 (NCI/ADR-RES ovarian): 0.257 µM
TGI (NCI/ADR-RES ovarian): 0.573 µM
GI50 (M14 melanoma): 0.274 µM
TGI (M14 melanoma): 0.753 µM
GI50 (HCT-15 colon): 0.178 µM
TGI (HCT-15 colon): 0.361 µM
GI50 (HT29 colon): 0.226 µM
TGI (HT29 colon): > 100 µM
GI50 (SK-OV-3 ovarian): 1.61 µM
TGI (SK-OV-3 ovarian): 2.98 µM
GI50 (HCC-2998 colon): 0.221 µM
TGI (HCC-2998 colon): 0.389 µM
GI50 (RPMI-8226 leukemia): 1.86 µM
TGI (RPMI-8226 leukemia): 59.1 µM
GI50 (MOLT-4 leukemia): 0.462 µM
GI50 (T-47D breast): 0.179 µM
TGI (T-47D breast): 0.391 µM
